“Also recorded” adds a separate entry of the source.
Assays:
[1] = system: bacillus stearothemophilus spores; assay: Spore studies in NO and NO2 (BI disks in TYVEK pouches, glass vessel); assay type: cell-based; conditions: Exp Time 10 min
Experimental: The experiments are conducted in glass vessels in which gases can be metered in exact amounts. The tests were conducted using biological indicators made of stainless steel disks inoculated with 10^6 bacillus stearothemophilus spores. The BI disks are heat-sealed in individual TYVEK sterilization pouches and placed in a glass vessel. The vessel is filled with various mixtures of gases following specific protocols for the order and timing of gas introduction.
In one protocol, the glass vessel is evacuated to 3″ Hg absolute. Either NO or NO2, as the sterilant gas, is added in an amount that corresponds to a 5% concentration (by volume) when the vessel is completely filled with sterilant gas and diluent gas. After 5 minutes, either air or nitrogen was added to the vessel until atmospheric pressure is reached. The BI is exposed to the air or nitrogen for 10 minutes. Thereafter, the BIs, in their pouches, are removed from the vessel and taken to a microbiological hood. The biological indicators are removed from the pouches and placed in tubes with sterile tryptic soy broth, incubated at from about 55 to about 60° C., and monitored for growth.

[2] = system: Serratia marcesens; assay: Portable system (blood storage container, diazeniumdiolate plus acidic buffer) sterilization of stainless steel strips; assay type: cell-based, S. marcesens; conditions: Fifteen Minute Sterilization Cycle; stainless steel strip
From the text: (§1) Similar to Example 1, a portable system is devised using blood storage containers and other laboratory items. In this construct, a blood storage container (Nexell, Irvine, Calif.; Lifecell PL732 plastic tissue culture flask) serves as the sterilization chamber. It has multiple ports, is easily attached to tubing or other chambers, and is easily cut and heat sealed for insertion and removal of contaminated/sterilized samples. The heat seal is strong and holds well at pressure, even though 1 ATM of pressure is used experimentally. Two 60 ml syringes connected to each other and a line of tubing by a three-way stopcock are employed to mix acidic buffer in one syringe with NO-releasing diazeniumdiolate in the other syringe. The tubing is connected to the blood container/sterilization chamber.
(§2) The stopcock is turned so that the acidic buffer can be added to the syringe containing the diazeniumdiolate. The valve is immediately closed to the buffer syringe and opened to the sterilization chamber. The 300 cc sterilization chamber inflates in about 15 seconds. Experiments are performed as described above, except that the devised system is used instead of the pressure vessel.
(§3) The test organisms are cultured overnight in BHI. The cultures contained at least 10^8 CFU/ml (100-fold greater than FDA testing guidelines) based on standardized ABS595 curves for each organism. […]

[3] = system: cocktail of bacteria; assay: Humidity effects on live bacteria, sealed and unsealed dry samples; assay type: cell-based; conditions: 15 min Sterilization cycle, 1 atmosphere
From the text: This Example tests several humidifying paradigms and the ability to sterilize through a gas sterilization seal pouch. A cocktail of bacteria is used, grown to about 10^8 CFU/ml and mixed in equal volume. Stainless steel strips are dipped, allowed to dry, and subject to one of three methods: A, B and C. Method A samples are wrapped in a moist Kimwipe. Method B samples are left dry. Method C samples are dried and sealed in a V. Mueller™ Dual Peel Seal Pouch, which is designed for gas and autoclave sterilizations. Samples from methods B and C are placed in the sterilization chamber with a moist Kimwipe. Placement in the chamber is done so as to insure maximal separation of the Kimwipe and the sample(s). The chamber is re-sealed carefully so as not to disturb the positioning of the samples relative to the Kimwipe. Each sample is exposed to a 15 minute sterilization cycle at 1 atmosphere, removed under sterile conditions, and the samples are placed in BHI media as described above. Experimental samples are exposed to NO gas while control samples are handled identically, except that the chamber is gassed with nitrogen. All controls reached greater than 10^6 total CFU/ml in 24 hrs as determined by ABS595 standardization curves.

[4] = system: Klebsiella pneumoniae; assay: Pressure vessel NO sterilization of dipped stainless steel strips; assay type: cell-based, Klebsiella pneumoniae (strain 21991); conditions: Five Minute Sterilization Cycle, NO gas at atmospheric pressure
From the text: (§4) A glass pressure vessel is connected to a scrubbed NO gas tank source. The pressure vessel is purged five times with Argon gas to eliminate atmospheric oxygen (preventing formation of NO2•) and an additional three purges of NO are used to ensure a pure NO atmosphere and consistent results of bactericidal activity. To test the sterilization method: Bacillus subtillis var niger 9372 is used (after obtaining >80% endospore formation; a standard for ethylene oxide and autoclave test sterilization), as well as organisms commonly found on the epidermis: Staphylococcus aureus (strain 21769) and Staphylococcus epidermides (strain 21977), and the enteric organisms: Klebsiella pneumoniae (strain 21991) and Serratia marcesens (strain 21140). This particular Serratia strain has been found in previous studies to be one of the most resistant bacteria to the bactericidal effects of NO in culture. See, Raulli R et al., Recent Res Devel Microbiol 6: 177-183, 2002, the entire contents of which is incorporated by reference herein.
(§5) The organisms are cultured overnight in brain heart infusion BHI. […]
(§6) The sealed vessel is carefully opened in a laminar flow hood after all the NO had been purged with Argon. […] The samples are observed (digitally photographed) 24 hrs later, placed back in the waterbath and are measured for absorbance 72 hrs later. […]

[5] = system: Bacillus subtilis (spore); assay: Portable system (blood storage container, diazeniumdiolate plus acidic buffer) sterilization of stainless steel strips; assay type: cell-based, B. subtilis (endosporulated); conditions: Fifteen Minute Sterilization Cycle; stainless steel strip
From the text: as §1, §2, §3

[6] = system: Staphylococcus epidermides; assay: Pressure vessel NO sterilization of dipped stainless steel strips; assay type: cell-based, Staphylococcus epidermides (strain 21977); conditions: Five Minute Sterilization Cycle, NO gas at atmospheric pressure
From the text: as §4, §5, §6

[7] = system: Staphylococcus epidermides; assay: Portable system (blood storage container, diazeniumdiolate plus acidic buffer) sterilization of stainless steel strips; assay type: cell-based, S. epidermides; conditions: Fifteen Minute Sterilization Cycle; stainless steel strip
From the text: as §1, §2, §3

[8] = system: spores (Biological Indicator manufactured by Raven); assay: Humidity effects on spores (Raven Biological Indicator in Tyvek sachets, 300 ml glass vessels); assay type: cell-based; conditions: 5% nitrogen oxide, Diluent Air
Experimental: This Example illustrates the effects of humidity on the sterilization of spores using both NO and NO2/N2O4 as sterilizing gases. Tests are conducted in 300 ml glass vessels.
The vessels are allowed to stand for 30 minutes, Two Tyvek sachets, each containing a Biological Indicator manufactured by Raven (product number 3367771 3-6100ST) are placed in each vessel. The vessels are purged as follows: The vessel is evacuated to 8″Hg absolute. The Vessel is re-filled with air to atmospheric pressure. Evacuation/filling is repeated two more times. The vessel is evacuated to 8″Hg absolute. Sterilizing gases are introduced into the vessel. Compressed air (9% Relative Humidity) is added until the vessel reaches atmospheric pressure. The sachets are allowed to remain in the sterilizing environments for either five or ten 10 minutes before being removed and the BI is cultured in 4 milliliters of Tryptic Soy Broth for 14 days at 55-60° C.

[9] = system: Bacillus subtilis; assay: Pressure vessel NO sterilization of dipped stainless steel strips; assay type: cell-based, Bacillus subtillis var niger 9372; conditions: Five Minute Sterilization Cycle, NO gas at atmospheric pressure
From the text: as §4, §5, §6

[10] = system: Serratia marcesens; assay: as above; assay type: cell-based, Serratia marcesens (strain 21140); conditions: Five Minute Sterilization Cycle, NO gas at atmospheric pressure
From the text: as §4, §5, §6

[11] = system: Staphylococcus aureus; assay: as above; assay type: cell-based, Staphylococcus aureus (strain 21769); conditions: Five Minute Sterilization Cycle, NO gas at atmospheric pressure
From the text: as §4, §5, §6

[12] = system: sporulated B. subtilis var. niger; assay: Sterilization of contaminated stainless steel strips with varying quantities of delivered NO; assay type: cell-based; conditions: 5%, 2.5% and 1% NO, five minutes, culture in LB 48 hours then plating
From the text: A blood storage container (Nexell, Irvine, Calif.; Lifecell PL732 plastic tissue culture flask) is used as the sterilization chamber. Strips of stainless steel are dipped in 10^6 CFU/ml sporulated B. subtilis var. niger (as determined by ABS595 standardization curves). The strips are allowed to air dry, placed in the sterilization chamber, and then the sterilization chamber is heat sealed. The sterilization chamber is evacuated using a syringe and controlling air flow with the sterilization chamber valves. A known quantity of air is added to the vessel using a graduated syringe.
An NO-generating donor compound is placed in a 7 cc gas generation chamber. The gas generation chamber is attached to the storage container through luer lock connectors. The liquid activator, 3.0N HCl is added to the gas generation chamber and the generated gas is allowed to flow into the sterilization chamber. After a brief generation period, the gas is sealed in the sterilization chamber using a compression valve.
Varying quantities of NO gas, namely 10%, 5%, 2.5% and 1% NO, are tested for their efficacy in the sterilization chamber. The quantity (%) of NO gas generated and added to the sterilization chamber is calculated from the number of moles of NO required to be generated to result in the desired percentage of NO. […]

[13] = system: Bacillus subtilis; assay: Portable system (blood storage container, diazeniumdiolate plus acidic buffer) sterilization of stainless steel strips; assay type: cell-based, B. subtilis (vegetative); conditions: Fifteen Minute Sterilization Cycle; stainless steel strip
From the text: as §1, §2, §3

[14] = system: Bacillus stearothemophilus spores (ATCC 7953); assay: Spore studies in lumens (wire biological indicators, resistometer); assay type: cell-based; conditions: 5 min, 23° C., NO then air
Experimental: The ability of the nitrogen oxide gases to penetrate an inner open space or cavity within a tube (i.e., a lumen) and inactivate spores in the lumen is evaluated. The spores used are those that are most resistant to the nitrogen oxide gases.
The following configuration of lumens are tested:
(a) 17″ stainless (SS) tubes having a 2.5 mm inner diameter (I.D.), bent in “U” shape
(b) 60″ polyethylene (PE) tube having a 4.5 mm ID, coiled and in Tyvek pouch
(c) 60″ PE tube having a 4.5 mm ID and a 1.5 mm outer diameter (O.D.) PEEK tube inside, coiled and in Tyvek pouch
Wire biological indicators are inoculated with 10^6 Bacillus stearothemophilus spores (ATCC 7953), (Raven Lot 3W67583) and placed at the center point of the tube in each of these configurations. The coiled polyethylene tubes were then heat-sealed in a TYVEK sterilization pouch.
Separately, each of the lumen samples are tested. The stainless steel tube (triplicate samples: SS-1, SS-2, and SS-3), the polyethylene tube, and the polyethylene tube with the PEEK catheter were each placed in a resistometer and exposed to the following gas cycle for 5 minutes at 23° C. This gas cycle is defined as follows: […]
The sterilization chamber/resistometer is evacuated and held at vacuum for 2 minutes. NO gas is then added to the sterilization chamber until the vacuum is decreased by 1″Hg. This condition is maintained for 2 minutes. Are is then added until the chamber reaches atmospheric pressure and the condition is held for 5 minutes.

[15] = system: bacterial cocktail containing B. subtilis, S. marcesens, and S. epidermides; assay: Sterilization of medical materials (tubing, needle); assay type: cell-based; conditions: 15 min Sterilization Cycle
Experimental: In this Example, the sterilization of medically relevant materials, such as needles and plastic tubing, is tested. Teflon (⅛′ ID), polyethylene (1.77 mm ID), vinyl (0.5 mm ID) tubing and a 30 gauge disposable needle are dipped in a bacterial cocktail containing B. subtilis, S. marcesens, and S. epidermides at about 10^8 total CFU/ml The samples are placed in the sterilization chamber and sealed. In each case, the lumen (the inner open space or cavity within the tubing) of the tubing or the needle contained at least some visually confirmed inoculum. […] The controls for each material reached at least 10^6 total CFU/ml in 24 hrs as determined by ABS595 standardization curves.

## [N]=O [NO, nitric oxide]
[1]; 5% in Air with Humidity Chip
  spore condition (Dead/Live): Dead
[2]
  trials Killed: 3/3 Killed
[3]; Method A, sample wrapped in Moist Kimwipe
  trials Killed: Killed
[3]; Method B, Dry sample
  trials Killed: sterilized dry samples; also recorded: Killed
[3]; Method C, Dry, Sealed in Dual Peel Seal Pouch
  trials Killed: Killed
[4]
  trials showing no bacterial growth (Killed): 3/3 Killed
[5]
  trials Killed: 2/2
[6]
  trials showing no bacterial growth (Killed): 3/3 Killed
[7]
  trials Killed: 3/3 Killed
[8]; Exposure 5 Minutes, Dry
  Spore Condition in 14 Days: Alive
[8]; Exposure 5 Minutes, Humid
  Spore Condition in 14 Days: Dead
[8]; Exposure 10 Minutes, Dry
  Spore Condition in 14 Days: Alive
[8]; Exposure 10 Minutes, Humid
  Spore Condition in 14 Days: Dead
[9]
  trials showing no bacterial growth (Killed): 3/3 Killed
[10]
  trials showing no bacterial growth (Killed): 3/3 Killed
[11]
  trials showing no bacterial growth (Killed): 3/3 Killed
[12]
  killing 10^6 CFU/ml sporulated B. subtilis var. niger: effective at killing
[13]
  trials Killed: 2/2
[14]; (a) SS-1, 17″ stainless tube 2.5 mm I.D.
  spore condition (Dead/Live) after 14 days of incubation: Dead
[14]; (a) SS-2, 17″ stainless tube 2.5 mm I.D.
  spore condition (Dead/Live) after 14 days of incubation: Dead
[14]; (a) SS-3, 17″ stainless tube 2.5 mm I.D.
  spore condition (Dead/Live) after 14 days of incubation: Dead
[14]; (b) PE Sheath, 60″ polyethylene tube 4.5 mm ID in Tyvek pouch
  spore condition (Dead/Live) after 14 days of incubation: Dead
[14]; (c) PE Sheath with Catheter (PEEK tube inside) in Tyvek pouch
  spore condition (Dead/Live) after 14 days of incubation: Dead
[15]; Disposable Needle 30 gauge
  trials Killed: 2/2 Killed
[15]; Polyethylene Tubing 1.77 mm ID
  trials Killed: 2/2 Killed
[15]; Teflon Tubing 1/8′ ID
  trials Killed: 2/2 Killed
[15]; Vinyl Tubing 0.5 mm ID
  trials Killed: 2/2 Killed

## [O]N=O [NO2, nitrogen dioxide]
[1]; 5% in Air with Humidity Chip
  spore condition (Dead/Live): Dead
[1]; 5% in N2 with Humidity Chip
  spore condition (Dead/Live): Dead

— patent US9180217B2, “Sterilization system and device” (priority 2004, dated 2015)
